Data as given in ChEMBL document CHEMBL4311957, “Recent advances in natural antifungal flavonoids and their derivatives” (Bioorg Med Chem Lett, 2019).
In brackets after ≈: the same amount, converted by molar mass.

Tests used:
[1] = system: Candida albicans; assay: Antifungal activity against Candida albicans 501 by microdilution method; assay type: functional
[2] = system: Nakaseomyces glabratus; assay: Antifungal activity against Candida glabrata 493 by microdilution method; assay type: functional
[3] = system: Candida albicans; assay: Antifungal activity against Candida albicans; assay type: functional, organism-based
[4] = system: Candida albicans; assay: Antifungal activity against Candida albicans ATCC 10231 by microdilution method; assay type: functional
[5] = system: Pichia kudriavzevii; assay: Antifungal activity against Candida krusei 168 by microdilution method; assay type: functional
[6] = system: Nakaseomyces glabratus; assay: Antifungal activity against Candida glabrata 507 by microdilution method; assay type: functional
[7] = system: Candida albicans; assay: Antifungal activity against Candida albicans 53 by microdilution method; assay type: functional
[8] = system: Candida tropicalis; assay: Antifungal activity against Candida tropicalis 166 by microdilution method; assay type: functional
[9] = system: Nakaseomyces glabratus; assay: Antifungal activity against Candida glabrata 587 by microdilution method; assay type: functional
[10] = system: Nakaseomyces glabratus; assay: Antifungal activity against Candida glabrata 531 by microdilution method; assay type: functional
[11] = system: Nakaseomyces glabratus; assay: Antifungal activity against Candida glabrata 510 by microdilution method; assay type: functional
[12] = system: Candida parapsilosis; assay: Antifungal activity against Candida parapsilosis 96 by microdilution method; assay type: functional; conditions: Lodderomyces parapsilosis
[13] = system: Nakaseomyces glabratus; assay: Antifungal activity against Candida glabrata 482 by microdilution method; assay type: functional
[14] = system: Candida albicans; assay: Antifungal activity against Candida albicans 498 by microdilution method; assay type: functional
[15] = system: Trichophyton rubrum; assay: Antifungal activity against Trichophyton rubrum; assay type: functional
[16] = system: Candida albicans; assay: Antifungal activity against Candida albicans NBRC 1385 by microdilution method; assay type: functional
[17] = system: Pichia kudriavzevii; assay: Antifungal activity against Candida krusei ATCC 6258; assay type: functional
[18] = system: Candida parapsilosis; assay: Antifungal activity against Candida parapsilosis 90/2224; assay type: functional; conditions: Lodderomyces parapsilosis
[19] = system: Nakaseomyces glabratus; assay: Antifungal activity against Candida glabrata ATCC 90030; assay type: functional
[20] = system: Pichia kudriavzevii; assay: Antifungal activity against Candida krusei CK25; assay type: functional
[21] = system: Nakaseomyces glabratus; assay: Antifungal activity against Candida glabrata WT-5; assay type: functional
[22] = system: Candida parapsilosis; assay: Antifungal activity against Candida parapsilosis ATCC 22014; assay type: functional; conditions: Lodderomyces parapsilosis
[23] = system: Trichophyton rubrum; assay: Antifungal activity against Trichophyton rubrum NBRC 5467 by microdilution method; assay type: functional
[24] = system: Aspergillus fumigatus; assay: Antifungal activity against Aspergillus fumigatus NBRC 4400 by microdilution method; assay type: functional
[25] = system: Trichophyton mentagrophytes; assay: Antifungal activity against Trichophyton mentagrophytes IFM 46027 by microdilution method; assay type: functional
[26] = system: Cryptococcus gattii; assay: Antifungal activity against Cryptococcus gattii after 72 hrs; assay type: functional, Cryptococcus gattii VGI
[27] = system: Candida albicans; assay: Antifungal activity against Candida albicans ATCC 10231 after 48 hrs by CLSI-based broth microdilution method; assay type: functional; conditions: ATCC 10231, 48 h
[28] = system: Trichophyton mentagrophytes; assay: Antifungal activity against Trichophyton mentagrophytes after 5 days; assay type: functional; conditions: 120 h
[29] = system: Candida tropicalis; assay: Antifungal activity against Candida tropicalis CCC 131-2000 after 48 hrs by CLSI-based broth microdilution method; assay type: functional; conditions: CCC 131-2000, 48 h
[30] = system: Cryptococcus neoformans; assay: Antifungal activity against Cryptococcus neoformans ATCC 32264 after 48 hrs by CLSI-based broth microdilution method; assay type: functional; conditions: ATCC 32264, 48 h
[31] = system: Trichophyton rubrum; assay: Antifungal activity against Trichophyton rubrum after 5 days; assay type: functional; conditions: 120 h
[32] = system: Saccharomyces cerevisiae; assay: Antifungal activity against Saccharomyces cerevisiae ATCC 9763 after 48 hrs by CLSI-based broth microdilution method; assay type: functional; conditions: ATCC 9763, 48 h
[33] = system: Nannizzia gypsea; assay: Antifungal activity against Microsporum gypseum after 5 days; assay type: functional; conditions: 120 h
[34] = system: Cryptococcus neoformans; assay: Antifungal activity against Cryptococcus neoformans after 72 hrs; assay type: functional
[35] = system: Trichophyton tonsurans; assay: Antifungal activity against Trichophyton tonsurans after 5 days; assay type: functional; conditions: 120 h
[36] = system: Cryptococcus neoformans; assay: Antifungal activity against Cryptococcus neoformans after 48 hrs by broth micro dilution method; assay type: functional
[37] = system: Candida parapsilosis; assay: Antifungal activity against Candida parapsilosis after 48 hrs by broth micro dilution method; assay type: functional; conditions: Lodderomyces parapsilosis
[38] = system: Candida albicans; assay: Antifungal activity against Candida albicans after 48 hrs by broth micro dilution method; assay type: functional

Row | MIC [5] | Compound | MIC [1] | MIC [2] | MIC [4] | MIC [6] | MIC [7] | MIC [8] | MIC [9] | MIC [10] | MIC [11] | MIC [12] | MIC [13] | MIC [14] | also measured
1 | > 83 µg/mL | O=c1c(O)c(-c2ccc(O)cc2)oc2cc(O)cc(O)c12 [KAEMPFEROL] | > 83 µg/mL | 31.2 µg/mL (≈ 109 µM) | > 83 µg/mL | 31.2 µg/mL (≈ 109 µM) | > 83 µg/mL | > 83 µg/mL | 31.2 µg/mL (≈ 109 µM) | 31.2 µg/mL (≈ 109 µM) | 31.2 µg/mL (≈ 109 µM) | > 83 µg/mL | 31.2 µg/mL (≈ 109 µM) | > 83 µg/mL | MIC [3]: 256 to 512 µg/mL
2 |  | C=CC(C)(C)c1cc(/C=C/C(=O)c2ccc(O)cc2)c(OC)cc1O [LICOAGROCHACONE A] |  |  |  |  |  |  |  |  |  |  |  |  | MFC [3]: 150 µM (≈ 50.8 µg/mL); MIC [3]: 62.4 to 150 µM; MIC [15]: 11.5 µM
3 |  | O=c1cc(-c2ccc(O)c(O)c2)oc2cc(O)cc(O)c12 [LUTEOLIN] | > 83 µg/mL | 3.9 to 7.8 µg/mL (≈ 13.6 to 27.2 µM) | > 83 µg/mL | 3.9 to 7.8 µg/mL (≈ 13.6 to 27.2 µM) | > 83 µg/mL | > 83 µg/mL | 3.9 to 7.8 µg/mL (≈ 13.6 to 27.2 µM) | 3.9 to 7.8 µg/mL (≈ 13.6 to 27.2 µM) | 3.9 to 7.8 µg/mL (≈ 13.6 to 27.2 µM) | > 83 µg/mL | 3.9 to 7.8 µg/mL (≈ 13.6 to 27.2 µM) | > 83 µg/mL | MIC [16]: 30 µM (≈ 8.59 µg/mL); MIC [17]: 2.7 µg/mL (≈ 9.43 µM); MIC [18]: 5.4 µg/mL (≈ 18.9 µM); MIC50 [8]: 13 to 104 µg/mL (≈ 45.4 to 363 µM); MIC [19]: 52.7 µg/mL (≈ 184 µM); MIC [20]: 2.7 µg/mL (≈ 9.43 µM); MIC [15]: 250 µg/mL; MIC [21]: 52.7 µg/mL (≈ 184 µM); MIC50 [12]: 13 to 104 µg/mL (≈ 45.4 to 363 µM); MIC [22]: 5.4 µg/mL (≈ 18.9 µM); MIC [23]: 120 µM; MIC [24]: 230 µM; MIC [25]: 60 µM
4 | 64 µg/mL (≈ 201 µM) | O=c1c(O)c(-c2cc(O)c(O)c(O)c2)oc2cc(O)cc(O)c12 [MYRICETIN] | 16 to 64 µg/mL (≈ 50.3 to 201 µM) | 3.9 to 15.7 µg/mL (≈ 12.3 to 49.3 µM) | 16 to 64 µg/mL (≈ 50.3 to 201 µM) | 3.9 to 15.7 µg/mL (≈ 12.3 to 49.3 µM) | 16 to 64 µg/mL (≈ 50.3 to 201 µM) | 64 µg/mL (≈ 201 µM) | 3.9 to 15.7 µg/mL (≈ 12.3 to 49.3 µM) | 3.9 to 15.7 µg/mL (≈ 12.3 to 49.3 µM) | 3.9 to 15.7 µg/mL (≈ 12.3 to 49.3 µM) | 16 µg/mL (≈ 50.3 µM) | 3.9 to 15.7 µg/mL (≈ 12.3 to 49.3 µM) | 16 to 64 µg/mL (≈ 50.3 to 201 µM) | MIC [26]: 128 µg/mL (≈ 402 µM); MIC [27]: 31.2 µg/mL (≈ 98 µM); MIC [28]: 4 to 128 µg/mL (≈ 12.6 to 402 µM); MIC [29]: 31.2 µg/mL (≈ 98 µM); MIC [19]: 6.79 µg/mL (≈ 21.3 µM); MIC [30]: 31.2 µg/mL (≈ 98 µM); MIC [31]: 4 to 128 µg/mL (≈ 12.6 to 402 µM); MIC [32]: 31.2 µg/mL (≈ 98 µM); MIC [33]: 4 to 128 µg/mL (≈ 12.6 to 402 µM); MIC [34]: 8 to 128 µg/mL (≈ 25.1 to 402 µM); MIC [35]: 4 to 128 µg/mL (≈ 12.6 to 402 µM)
5 |  | C[C@@H]1O[C@@H](OC[C@H]2O[C@@H](Oc3c(-c4ccc(O)c(O)c4)oc4cc(O)cc(O)c4c3=O)[C@H](O)[C@@H](O)[C@@H]2O)[C@H](O)[C@H](O)[C@H]1O [RUTIN] |  |  |  |  |  |  |  |  |  |  |  |  | MIC [36]: > 256 µg/mL; MIC [37]: > 256 µg/mL; MIC [38]: > 256 µg/mL
6 |  | COc1c(O)cc(O)c2c(=O)cc(-c3ccccc3)oc12 [WOGONIN] |  |  |  |  |  |  |  |  |  |  |  |  | MIC [23]: 60 µg/mL; MIC [24]: 230 µg/mL; MIC [25]: 60 µg/mL

Row | Compound | MIC [5] | MIC [1] | MIC [2] | MIC [4] | MIC [6] | MIC [7] | MIC [8] | MIC [9] | MIC [10] | MIC [11] | MIC [12] | MIC [13] | MIC [14] | also measured
7 | C[C@@H]1O[C@@H](Oc2c(-c3ccc(O)c(O)c3)oc3cc(O)cc(O)c3c2=O)[C@H](O)[C@H](O)[C@H]1O [QUERCITRIN] | > 83 µg/mL | > 83 µg/mL | 7.8 to 62.5 µg/mL (≈ 17.4 to 139 µM) | > 83 µg/mL | 7.8 to 62.5 µg/mL (≈ 17.4 to 139 µM) | > 83 µg/mL | > 83 µg/mL | 7.8 to 62.5 µg/mL (≈ 17.4 to 139 µM) | 7.8 to 62.5 µg/mL (≈ 17.4 to 139 µM) | 7.8 to 62.5 µg/mL (≈ 17.4 to 139 µM) | > 83 µg/mL | 7.8 to 62.5 µg/mL (≈ 17.4 to 139 µM) | > 83 µg/mL | 
